Read-outs that look alike come from different tables or passages of the source.
What was measured:
E. faecium [1] = assay: Antibacterial activity evaluation (turbidity, OD600); assay type: cell-based, Enterococcus faecium (JCM5804); settings: for 50% effective concentration (EC50): growth of E. faecium
Method: (§1) E. faecium and E. faecalis were diluted to turbidity equivalents that matched 1.0 McFarland (McF) standard in distilled water (S. aureus and E. coli were also diluted to 0.5 McF), and additionally diluted 1:200 in Mueller–Hinton (MH) broth. The designated concentrations of the tested compounds were prepared by ten-fold serial dilutions directly in 96-well microtiter plates (IWAKI, Shizuoka, Japan), as previously described. […] The other compounds were serially diluted from 20 μM downwards (final concentration, 10 μM). […] Positive control wells included bacteria without any compound, and the negative control wells only contained MH broth. […] The optical density at 600 nm (OD600) was measured using a GloMax microtiter plate reader (Promega, WI, USA), and the EC50 values of each test compound and standard error were calculated by Microsoft Excel function, AVERAGE and STDEV/SQRT.

E. faecalis = assay: as above; assay type: cell-based, Enterococcus faecalis (JCM7783); settings: E. faecalis JCM7783
Method: as §1

S. aureus = assay: as above; assay type: cell-based, Staphylococcus aureus (ATCC29213); settings: S. aureus ATCC29213
Method: as §1

E. coli = assay: as above; assay type: cell-based, Escherichia coli (ATCC25922); settings: E. coli ATCC25922
Method: as §1

E. faecium [2] = assay: Bacterial viability assay (Microbial Viability Assay Kit-WST, OD450); assay type: cell-based, Enterococcus faecium; settings: for EC50: Enterococcus faecium
Method: Living E. faecium were determined using the Microbial Viability Assay Kit-WST (DOJINDO, Tokyo, Japan). […] Positive control wells included bacteria seeded into MH broth without compounds, and the negative control wells contained MH broth only. […] Five microlitres of the colouring reagent were added to each well of the 96-well plate every 2 h after starting incubation with each compound.

E. faecium [3] = assay: Antibacterial assay with an excess concentration of biomolecules (Ser, Gly, inosine, dT, FA); assay type: cell-based, Enterococcus faecium (JCM5804)
Method: as §1
The ratio of the control EC50 (no competitors added) to the experimental EC50 (competitors added) was calculated for each test substance.

efmSHMT [4] = assay type: binding, Enterococcus faecium; settings: DSF; final drug concentration 50 μM
Method: Protein samples were prepared as 20 μL aliquots containing 0.1 mg/mL protein (efmSHMT/ecSHMT), 1 μL of the ligand in DMSO (final drug concentration, 50 μM) and 2% or 4% SYPRO Orange (Invitrogen, MA, USA). […] Melting points were evaluated as the half-point of the maximum intensity of each curve.

ecSHMT = target: T1, ecSHMT (Escherichia coli, UniProt P0A825); assay: Thermal stability analysis using differential scanning fluorimetry (DSF); assay type: binding, E. coli; settings: final drug concentration 50 μM
T1 construct: His tag (followed by PreScission protease cleavage site) (N, cleaved yes); made in house; host or cells: E. coli BL21(DE3)
T1 sequence (P0A825 whole entry): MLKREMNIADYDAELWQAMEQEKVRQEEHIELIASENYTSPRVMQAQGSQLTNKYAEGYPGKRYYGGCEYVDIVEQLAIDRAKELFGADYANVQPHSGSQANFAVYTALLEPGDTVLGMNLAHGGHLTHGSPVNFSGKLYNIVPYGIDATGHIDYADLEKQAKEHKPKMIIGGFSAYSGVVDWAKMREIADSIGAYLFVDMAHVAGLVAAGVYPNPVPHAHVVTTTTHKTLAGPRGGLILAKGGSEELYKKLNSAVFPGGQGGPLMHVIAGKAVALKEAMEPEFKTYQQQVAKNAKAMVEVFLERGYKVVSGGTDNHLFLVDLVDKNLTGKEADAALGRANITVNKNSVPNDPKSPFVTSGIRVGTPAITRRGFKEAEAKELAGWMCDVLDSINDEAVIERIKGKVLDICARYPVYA
Method: Protein samples were prepared as 20 μL aliquots containing 0.1 mg/mL protein (efmSHMT/ecSHMT), 1 μL of the ligand in DMSO (final drug concentration, 50 μM) and 2% or 4% SYPRO Orange (Invitrogen, MA, USA). Measurements were taken using StepOnePlus real-time PCR (Thermo Fisher Scientific) (temperature increment, 1.8%; range, 20–95 °C). Melting points were evaluated as the half-point of the maximum intensity of each curve.

efmSHMT [5] = target: efmSHMT (Enterococcus faecium, UniProt I3U4H4, M1V); assay: biochemical; assay type: binding
efmSHMT (Enterococcus faecium, UniProt I3U4H4, M1V), sequence (I3U4H4 whole entry M1V): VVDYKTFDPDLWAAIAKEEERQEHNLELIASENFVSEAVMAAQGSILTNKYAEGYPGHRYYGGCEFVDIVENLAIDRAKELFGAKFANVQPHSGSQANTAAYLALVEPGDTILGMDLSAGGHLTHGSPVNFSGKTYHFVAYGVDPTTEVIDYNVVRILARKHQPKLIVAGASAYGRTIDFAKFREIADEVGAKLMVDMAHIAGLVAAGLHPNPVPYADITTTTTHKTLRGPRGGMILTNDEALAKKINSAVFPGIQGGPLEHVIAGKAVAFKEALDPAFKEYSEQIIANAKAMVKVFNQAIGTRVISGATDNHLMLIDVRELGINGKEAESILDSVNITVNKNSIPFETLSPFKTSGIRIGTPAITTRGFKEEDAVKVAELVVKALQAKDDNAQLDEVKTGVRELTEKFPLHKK
Method: After adding Me-THF, the efmSHMT solution was incubated for 30 min at room temperature. The optical density at 500 and 600 nm (OD500 and OD600) were then measured using a nanodrop spectrophotometer[24],[25]. OD600 was used as the background. After detection, each concentration of inhibitor was added to the efmSHMT solution and incubated for 30 min at room temperature. OD500 and OD600 were measured. The relative OD500 intensity was calculated as relative OD500 = (OD500 – OD600)/(MAXOD500 – OD600), where MAXOD500 is the average OD500 value in the presence of 1000, 2000 and 4000 μM Me-THF without inhibitors. […] Here, IC50 is the concentration of inhibitor added to the efmSHMT solution and [Me-THF] is the EC50 in the presence of the inhibitor concentration. [EC50 without inhibitor] is the EC50 of Me-THF in the absence of the inhibitor.

[6] = cited from earlier work
[7] = target: the molecule itself; assay: dynamic light scattering; 25 °C, Zetasizer NanoS, efmSHMT at 0.5 mg/mL, in triplicate; hydrodynamic radius 4.209 nm

Molecule `Cc1n[nH]c2c1[C@](c1cc(CO)cc(-c3ccccc3)c1)(C(C)C)C(C#N)=C(N)O2` [(+)-SHIN-1] has an EC50 (E. faecium [1]; Enterococcus faecium, read-out: 50% effective concentration (EC50), growth of E. faecium, order of magnitude given) of 0.01 nM, an EC50 (E. faecium [1]; Enterococcus faecium, E. faecium JCM5804, read-out: EC50) of 0.031 nM and an EC50 (E. faecium [1]; Enterococcus faecium, E. faecium JCM5804, read-out: pEC50 ± S.E. (converted)) of 0.0316 nM. The EC50 (E. faecium [1]; Enterococcus faecium, E. faecium, value of the response letter (earlier manuscript version), read-out: EC50 (turbidity)) was 0.044 ± 0.028 nM, the “50% effective concentration (EC50)” value (E. faecium [1]; order of magnitude given) was 10^–10 to 10^–11 M and the EC50 (E. faecalis; Enterococcus faecalis, read-out: EC50) was over 2000 nM. For the same molecule, the EC50 (E. faecalis; Enterococcus faecalis, read-out: pEC50 ± S.E. (converted)) was over 2000 nM, the EC50 (S. aureus; Staphylococcus aureus, read-out: EC50) was over 2000 nM and the EC50 (S. aureus; Staphylococcus aureus, read-out: pEC50 ± S.E. (converted)) was over 2000 nM. The EC50 (E. coli; Escherichia coli, read-out: EC50) was over 2000 nM, the EC50 (E. coli; Escherichia coli, read-out: pEC50 ± S.E. (converted)) was over 2000 nM and the “mode of antibacterial action (time-dependent bacterial viability)” value (E. faecium [2]) was “bacteriostatically”. It also gave an EC50 (E. faecium [2]; relative bacterial viability after 14 h incubation) of 0.23 nM, an EC50 (E. faecium [2]; value of the response letter (earlier manuscript version)) of 0.21 ± 0.13 nM and an EC50 (E. faecium [3]; Enterococcus faecium, JCM5804, E. faecium JCM5804, 1 mM Inosine, read-out: EC50) of 0.36 nM. The EC50 (E. faecium [3]; Enterococcus faecium, JCM5804, E. faecium JCM5804, 1 mM Inosine, read-out: pEC50 ± S.E. (converted)) was 0.398 nM, the EC50 (E. faecium [3]; Enterococcus faecium, JCM5804, E. faecium JCM5804, 1 mM deoxythymidine, read-out: EC50) was over 2000 nM and the EC50 (E. faecium [3]; Enterococcus faecium, JCM5804, E. faecium JCM5804, 1 mM deoxythymidine, read-out: pEC50 ± S.E. (converted)) was over 2000 nM. It also gave an EC50 (E. faecium [3]; Enterococcus faecium, JCM5804, E. faecium JCM5804, 10 mM Glycine, read-out: EC50) of 0.12 nM, an EC50 (E. faecium [3]; Enterococcus faecium, JCM5804, E. faecium JCM5804, 10 mM Glycine, read-out: pEC50 ± S.E. (converted)) of 0.126 nM and an EC50 (E. faecium [3]; Enterococcus faecium, JCM5804, E. faecium JCM5804, 100 mM Serine, read-out: EC50) of 0.43 nM. It also gave an EC50 (E. faecium [3]; Enterococcus faecium, JCM5804, E. faecium JCM5804, 100 mM Serine, read-out: pEC50 ± S.E. (converted)) of 0.398 nM, an EC50 (E. faecium [3]; Enterococcus faecium, JCM5804, E. faecium JCM5804, 0.1 M folate, read-out: EC50) of over 2000 nM and an EC50 (E. faecium [3]; Enterococcus faecium, JCM5804, E. faecium JCM5804, 0.1 M folate, read-out: pEC50 ± S.E. (converted)) of over 2000 nM. For the same molecule, the “ΔTm (thermal stability of efmSHMT)” value (efmSHMT [4]) was 7 °C, the “binding to ecSHMT (DSF)” value (ecSHMT) was “bound to ecSHMT” and the Ki (efmSHMT [5]; Ki, 2.5 μM efmSHMT, 10 mM Gly and 100 μM Ser, Cheng-Prusoff) was 8.8 nM. It also gave a Ki (efmSHMT [5]; Ki, 5 μM efmSHMT, 10 mM Gly and 100 μM Ser, Cheng-Prusoff) of 28 nM, a Ki (efmSHMT [5]; actual Ki (bound, as the assay's efmSHMT detection limit is 2.5 μM), efmSHMT) of under 8.8 nM and a Ki (efmSHMT [5]; pKi ± pSE, 2.5 μM efmSHMT, 10 mM Gly and 100 μM Ser) of 7.94 nM. The Ki (efmSHMT [5]; pKi ± pSE, 5 μM efmSHMT, 10 mM Gly and 100 μM Ser) was 25.1 nM.

With `Cc1[nH]nc2c1C(c1cc(CO)cc(-c3ccccc3)c1)(C(C)C)C(C#N)=C(N)O2` (centres unmarked) [SHIN-1] the “pEC50 ± S.E.” value (E. faecium [1]; E. faecium JCM5804) was 9.3 ± 0.1, the EC50 (E. faecium [1]; E. faecium JCM5804, read-out: EC50) was 0.5 nM and the “50% effective concentration (EC50)” value (E. faecium [1]; order of magnitude given) was 10^–10 to 10^–11 M. The “pEC50 ± S.E.” value (E. faecalis) was under 5.7, the EC50 (E. faecalis; read-out: EC50) was over 2000 nM and the “pEC50 ± S.E.” value (S. aureus) was under 5.7. For the same molecule, the EC50 (S. aureus; read-out: EC50) was over 2000 nM, the “pEC50 ± S.E.” value (E. coli) was under 5.7 and the EC50 (E. coli; read-out: EC50) was over 2000 nM. The “pEC50 ± S.E.” value (E. faecium [3]; E. faecium JCM5804, 1 mM Inosine) was 8.3 ± 0.3, the EC50 (E. faecium [3]; E. faecium JCM5804, 1 mM Inosine, read-out: EC50) was 5.2 nM and the “pEC50 ± S.E.” value (E. faecium [3]; E. faecium JCM5804, 1 mM deoxythymidine) was under 5.7. For the same molecule, the EC50 (E. faecium [3]; E. faecium JCM5804, 1 mM deoxythymidine, read-out: EC50) was over 2000 nM, the “pEC50 ± S.E.” value (E. faecium [3]; E. faecium JCM5804, 10 mM Glycine) was 8.9 ± 0.0 and the EC50 (E. faecium [3]; E. faecium JCM5804, 10 mM Glycine, read-out: EC50) was 1.2 nM. For the same molecule, the “pEC50 ± S.E.” value (E. faecium [3]; E. faecium JCM5804, 100 mM Serine) was 8.5 ± 0.1, the EC50 (E. faecium [3]; E. faecium JCM5804, 100 mM Serine, read-out: EC50) was 3.4 nM and the “pEC50 ± S.E.” value (E. faecium [3]; E. faecium JCM5804, 0.1 M folate) was under 5.7. For the same molecule, the EC50 (E. faecium [3]; E. faecium JCM5804, 0.1 M folate, read-out: EC50) was over 2000 nM, the pharmacokinetic properties [6] was “lacked pharmacokinetic properties suitable” and the half-life ([6]; response letter, ref (6) García-Cañaveras et al. 2021) was “too short to use in vivo”.

B1: Enterococcus faecium serine hydroxymethyltransferase (enzyme)
chain: VDYKTFDPDLWAAIAKEEERQEHNLELIASENFVSEAVMAAQGSILTNKYAEGYPGHRYYGGCEFVDIVENLAIDRAKELFGAKFANVQPHSGSQANTAAYLALVEPGDTILGMDLSAGGHLTHGSPVNFSGKTYHFVAYGVDPTTEVIDYNVVRILARKHQPKLIVAGASAYGRTIDFAKFREIADEVGAKLMVDMAHIAGLVAAGLHPNPVPYADITTTTTHKTLRGPRGGMILTNDEALAKKINSAVFPGIQGGPLEHVIAGKAVAFKEALDPAFKEYSEQIIANAKAMVKVFNQAIGTRVISGATDNHLMLIDVRELGINGKEAESILDSVNITVNKNSIPFETLSPFKTSGIRIGTPAITTRGFKEEDAVKVAELVVKALQAKDDNAQLDEVKTGVRELTEKFPLHKK
modifications: pyridoxal 5'-phosphate (PLP) covalently linked as a Schiff's base to K226 (in the efmSHMT/(+)-SHIN-1 structure; relocated to Ser or Gly in the ternary complexes)
notes: theoretical monomer molecular weight 44.7 kDa; A few vector residues may remain at the N-terminus after PreScission cleavage; also called efmSHMT; E. faecium SHMT; source: E. coli BL21(DE3), purified (HisTrap, PreScission digestion, HiTrap Q, Superdex 75); not shown: His tag, N-terminal, cleaved
For B1, the “stoichiometry N” value [7] was 2.

— article PMC9223267, “Serine hydroxymethyltransferase as a potential target of antibacterial agents acting synergistically with one-carbon metabolism-related inhibitors” (Communications Biology, 2022)
